Measurements taken from patent publication US20110189670A1, “Circulating Tumor and Tumor Stem Cell Detection Using Genomic Specific Probes” (priority 2008, published 2011).

System: peripheral blood lymphocytes
Test: Cytokinesis-block micronucleus (CBMN) assay, spontaneous and NNK-induced chromosomal damage (MN, NPBs, NBUDs)
Format: cell-based, human
Settings: 0.24 mM NNK, 2 hours
Experimental: The CBMN test was performed using the cytochalasin B technique described by Fenech and Morley and following recommendations from The International Collaborative Project on Micronucleus Frequency in Human Populations (HUMN Project) (22) to measure MN, NPBs and NBUDs in untreated cells and NNK-treated cells. Duplicate lymphocyte cultures were prepared for each study subject. Each culture contained 2.0×10^6 cells in 5 mL RPM1 1640 medium supplemented with 100 U/mL penicillin, 100 μg/mL streptomycin, 10% fetal bovine serum, and 2 mM L-glutamine (Gibco-Invitrogen, Carlsbad, Calif.) and 1% phytohemagglutinin (Remel, Lenexa, Kans.). For the cultures treated with NNK, 24 hours after initiation, the PBLs were centrifuged and the supernatant growth medium was removed and reserved. The PBLs were resuspended in 5 mL of serum-free RPM1 1640 medium supplemented with 0.24 mM NNK (CAS No 64091-91-4, National Cancer Institute, Midwest Carcinogen Repository, Kansas City, Mo.) and incubated at 37° C. in the presence of 5% COz for 2 hours. Next, the PBLs were washed twice with serum-free RPM1 1640, transferred to clean tubes and re-incubated for 48 hours in the reserved supernatant At 44 hours after initiation, cells were blocked in cytokinesis by adding cytochalasin B (Sigma, St Louis, Mo.; final concentration 4 μg/mL). Similarly, cultures for the determination of spontaneous damage (untreated cells) were handled in the same manner, with the exception of treatment with NNK. The total incubation time for all cultures was 72 hours. After incubation, the cells were fixed in 3:1 methanol:glacial acetic acid, dropped onto clean microscopic slides, air-dried and stained with Giemsa stain. For each sample, 1000 binucleated cells were scored blindly using a Nikon E-400 light optical microscope following the scoring criteria outlined by HUMN Project (2,11,23); the numbers of MN, NPBs, and NBUDs per 1000 binucleated cells were recorded For quality control, 20% of the slides were randomly selected and blindly rescored and the results compared with the original scoring
Tobacco smoke carcinogens and individual susceptibility play key roles in determining risk of lung cancer. There are a variety of biomarkers evaluating susceptibility to the carcinogenic effects of benzo[a]pyrene; however, no assays specifically evaluate susceptibility to the nicotine-derived nitrosamine 4-(methylnitrosamino)-1-(3-pyridyl)-1-butanone (NNK), a potent inducer of lung adenocarcinoma. In this case-control study, the inventors modified the cytokinesis-block micronucleus (CBMN) assay, an established biomarker for DNA damage and genomic instability, to evaluate susceptibility to NNK by measuring the frequency of NNK-induced chromosomal damage endpoints (micronuclei [MN]; nucleoplasmic bridges [NPBs] and nuclear buds “BUDS]) per 1000 binucleated peripheral blood lymphocytes. […] Forty-seven percent of the cases (compared with 12% of the controls) had ≧4 spontaneous MN, 66% of the cases (and no controls) had ≧4 spontaneous NPBs, and 25% of cases (versus 5% of controls) had ≧1 spontaneous NBUDs (P<001). Similarly, 40% of the cases (versus 6% of the controls) had ≧5 NNK-induced MN, 89% of the cases (and no controls) had ≧6 induced NPBs, and 23% of the cases (vs 2% of the controls had 2 induced NBUDs (P<001). As continuous variables, spontaneous MN, NPBs and NBUDs were associated with 2-, 29-, and 6-fold increases in risk for cancer. Similarly, NNK-induced 2 3-, 45.5-, and 10-fold increases in risk for cancer. The inventors also evaluated the use of results from the CBMN assay to predict cancer risk based on the numbers of MN, NPBs, and NBUDs defined by percentile cut-points in control data. The probability of being a cancer patient were 96%, 98% and 100% when using the 95th percentiles of spontaneous and NNK-induced MN, NPBs and NBUDs, respectively, in combination. […]

CN(CCCC(=O)c1cccnc1)N=O [NNK, 4-(methylnitrosamino)-1-(3-pyridyl)-1-butanone]
subjects with 2 induced NBUDs per 1000 binucleated peripheral blood lymphocytes (lung cancer cases (139)): 23% | subjects with ≧5 NNK-induced MN per 1000 binucleated peripheral blood lymphocytes (lung cancer cases (139)): 40% | subjects with ≧6 induced NPBs per 1000 binucleated peripheral blood lymphocytes (lung cancer cases (139)): 89% | subjects with 2 induced NBUDs per 1000 binucleated peripheral blood lymphocytes (matched controls (130)): 2% | subjects with ≧5 NNK-induced MN per 1000 binucleated peripheral blood lymphocytes (matched controls (130)): 6% | subjects with ≧6 induced NPBs per 1000 binucleated peripheral blood lymphocytes (matched controls (130)): no controls
